What was measured:
[1] = xn = mol fraction of the nth substance listed; settings: 101.3 kPa, Liquid, Vibrating tube method
[2] = 101.3 kPa, Liquid, Vibrating tube method

CC(O)CO (stereo unspecified) [1,2-propanediol] + CCCCCCCCO
mass density [kg/m3], [1]
Settings | x1 = 0.1028 | x1 = 0.1938 | x1 = 0.3029 | x1 = 0.3929 | x1 = 0.5181 | x1 = 0.6002 | x1 = 0.7012 | x1 = 0.8016 | x1 = 0.901 | x1 = 1
293.15 K | 834.904 | 844.743 | 858.314 | 871.118 | 892.06 | 908.213 | 931.472 | 959.327 | 993.344 | 1036.22
298.15 K | 831.409 | 841.209 | 854.74 | 867.513 | 888.414 | 904.545 | 927.781 | 955.627 | 989.648 | 1032.56
303.15 K | 827.891 | 837.652 | 851.144 | 863.884 | 884.743 | 900.85 | 924.062 | 951.891 | 985.914 | 1028.85
308.15 K | 824.351 | 834.08 | 847.528 | 860.235 | 881.051 | 897.13 | 920.315 | 948.124 | 982.15 | 1025.1
313.15 K | 820.793 | 830.481 | 843.885 | 856.562 | 877.332 | 893.39 | 916.543 | 944.333 | 978.349 | 1021.31
318.15 K | 817.208 | 826.859 | 840.223 | 852.864 | 873.592 | 889.619 | 912.743 | 940.506 | 974.513 | 1017.49

CCCCCCO [hexan-1-ol] + CC(O)CO
[1], x2 = 0
Settings | mass density [kg/m3]
293.15 K | 818.749
298.15 K | 815.188
303.15 K | 811.6
308.15 K | 807.984
313.15 K | 804.339
318.15 K | 800.657

CCCO [propan-1-ol] + CC(O)CO
[1], x2 = 0
Settings | mass density [kg/m3]
293.15 K | 803.527
298.15 K | 799.528
303.15 K | 795.493
308.15 K | 791.426
313.15 K | 787.32
318.15 K | 783.164

CC(O)CO (stereo unspecified) [1,2-propanediol] + CCCO
mass density [kg/m3], [1]
Settings | x1 = 0.1001 | x1 = 0.2 | x1 = 0.3001 | x1 = 0.3999 | x1 = 0.4999 | x1 = 0.6997 | x1 = 0.7998 | x1 = 0.9497 | x1 = 1
293.15 K | 827.101 | 850.504 | 873.567 | 897.361 | 920.615 | 967.056 | 990.126 | 1024.72 | 1036.13
298.15 K | 823.072 | 846.479 | 869.634 | 893.372 | 916.676 | 963.215 | 986.331 | 1021.04 | 1032.48
303.15 K | 819.008 | 842.415 | 865.603 | 889.385 | 912.697 | 959.329 | 982.502 | 1017.3 | 1028.78
308.15 K | 814.909 | 838.312 | 861.519 | 885.326 | 908.683 | 955.407 | 978.642 | 1013.52 | 1025.05
313.15 K | 810.77 | 834.174 | 857.399 | 881.264 | 904.631 | 951.451 | 974.743 | 1009.71 | 1021.28
318.15 K | 806.589 | 829.994 | 853.237 | 877.138 | 900.544 | 947.456 | 970.809 | 1005.86 | 1017.47

CC(O)CO (stereo unspecified) [1,2-propanediol] + CCCCCCO
mass density [kg/m3], [1]
Settings | x1 = 0.1014 | x1 = 0.1998 | x1 = 0.2999 | x1 = 0.4003 | x1 = 0.4939 | x1 = 0.5996 | x1 = 0.6965 | x1 = 0.7989 | x1 = 0.9005 | x1 = 1
293.15 K | 831.496 | 845.231 | 860.667 | 877.818 | 895.533 | 917.945 | 941.028 | 968.795 | 1000.46 | 1036.21
298.15 K | 827.881 | 841.574 | 856.979 | 874.105 | 891.801 | 914.203 | 937.285 | 965.064 | 996.753 | 1032.55
303.15 K | 824.235 | 837.887 | 853.262 | 870.363 | 888.041 | 910.432 | 933.51 | 961.302 | 993.003 | 1028.84
308.15 K | 820.566 | 834.178 | 849.521 | 866.596 | 884.256 | 906.63 | 929.702 | 957.503 | 989.222 | 1025.09
313.15 K | 816.869 | 830.44 | 845.751 | 862.8 | 880.441 | 902.801 | 925.868 | 953.677 | 985.406 | 1021.31
318.15 K | 813.142 | 826.676 | 841.952 | 858.977 | 876.599 | 898.941 | 922.002 | 949.81 | 981.555 | 1017.49

CCCCCCCCCO [nonan-1-ol] + CC(O)CO
mass density [kg/m3], [1]
Settings | x2 = 0 | x2 = 0.1056 | x2 = 0.225 | x2 = 0.3433 | x2 = 0.3773 | x2 = 0.5551 | x2 = 0.6746 | x2 = 0.7695 | x2 = 0.7978 | x2 = 0.899
293.15 K | 827.667 | 836.639 | 848.601 | 862.671 | 867.271 | 895.783 | 920.803 | 945.697 | 953.952 | 989.338
298.15 K | 824.254 | 833.182 | 845.095 | 859.126 | 863.71 | 892.163 | 917.143 | 942.013 | 950.266 | 985.641
303.15 K | 820.815 | 829.698 | 841.567 | 855.554 | 860.127 | 888.513 | 913.452 | 938.296 | 946.543 | 981.914
308.15 K | 817.362 | 826.204 | 838.022 | 851.964 | 856.523 | 884.841 | 909.736 | 934.554 | 942.791 | 978.153
313.15 K | 813.885 | 822.685 | 834.458 | 848.353 | 852.901 | 881.148 | 906.002 | 930.783 | 939.015 | 974.358
318.15 K | 810.385 | 819.146 | 830.872 | 844.72 | 849.257 | 877.428 | 902.236 | 926.985 | 935.207 | 970.53

CCCCCCO [hexan-1-ol]
[2]
Settings | mass density [kg/m3]
293.15 K | 818.749
298.15 K | 815.188
303.15 K | 811.6
308.15 K | 807.984
313.15 K | 804.339
318.15 K | 800.657

CCCCCCCCO [octan-1-ol] + CC(O)CO
[1], x2 = 0
Settings | mass density [kg/m3]
293.15 K | 825.093
298.15 K | 821.647
303.15 K | 818.177
308.15 K | 814.686
313.15 K | 811.171
318.15 K | 807.629

CO [methanol] + CC(O)CO
[1], x2 = 0
Settings | mass density [kg/m3]
293.15 K | 791.494
298.15 K | 786.794
303.15 K | 782.071
308.15 K | 777.326
313.15 K | 772.55
318.15 K | 767.744

CCCCCCCCO [octan-1-ol]
[2]
Settings | mass density [kg/m3]
293.15 K | 825.093
298.15 K | 821.647
303.15 K | 818.177
308.15 K | 814.686
313.15 K | 811.171
318.15 K | 807.629

CC(O)CO (stereo unspecified) [1,2-propanediol] + CCCCCCCCCO
[1], x1 = 1
Settings | mass density [kg/m3]
293.15 K | 1036.17
298.15 K | 1032.52
303.15 K | 1028.83
308.15 K | 1025.09
313.15 K | 1021.31
318.15 K | 1017.49

CC(O)CO (stereo unspecified) [1,2-propanediol] + CO
mass density [kg/m3], [1]
Settings | x1 = 0.1008 | x1 = 0.1385 | x1 = 0.2582 | x1 = 0.3 | x1 = 0.4851 | x1 = 0.5476 | x1 = 0.6991 | x1 = 0.7595 | x1 = 0.8991 | x1 = 1
293.15 K | 838.277 | 853.548 | 895.155 | 908.078 | 954.527 | 967.74 | 995.074 | 1004.49 | 1024 | 1036.17
298.15 K | 833.79 | 849.127 | 890.917 | 903.893 | 950.534 | 963.799 | 991.242 | 1000.7 | 1020.29 | 1032.52
303.15 K | 829.274 | 844.68 | 886.644 | 899.676 | 946.507 | 959.825 | 987.37 | 996.862 | 1016.54 | 1028.83
308.15 K | 824.731 | 840.206 | 882.346 | 895.43 | 942.448 | 955.815 | 983.47 | 992.997 | 1012.75 | 1025.09
313.15 K | 820.164 | 835.7 | 878.013 | 891.151 | 938.356 | 951.772 | 979.532 | 989.094 | 1008.92 | 1021.31
318.15 K | 815.56 | 831.158 | 873.648 | 886.837 | 934.226 | 947.684 | 975.556 | 985.157 | 1005.05 | 1017.49

Reference: the NIST ThermoML archive (doi:10.1016/j.jct.2012.12.003)
